Laboratory results taken from article PMC9241695, “Selective Metal Chelation by a Thiosemicarbazone Derivative Interferes with Mitochondrial Respiration and Ribosome Biogenesis in Candida albicans” (Microbiology Spectrum, 2022).
In brackets after ≈: the same amount, converted by molar mass.

Columns and labels:
C. albicans SC5314 cells = experiment: Intracellular labile zinc levels using Zinbo-5; format: cell-based, Candida albicans; details: 6 h
Experimental: C. albicans SC5314 cells grown overnight were pelleted, washed three times with PBS buffer, and resuspended to obtain an OD600 of 2.0. Next, the cells were incubated with various concentrations of 19ak in 96-well plates at 30°C for 6 h, followed by incubation with 10 μM Zinbo-5 for 30 min. Finally, fluorescence was measured in a microplate reader (excitation at 355 nm, emission at 485 nm). Similar approach was used in detection of intracellular zinc levels of mammalian cells.

C. albicans SC5314 = experiment: Respiratory activity by CTC staining; format: cell-based, Candida albicans; details: 6 h, 1 mM CTC; 19ak 0.125-1 μg/mL, TPEN 0.05-0.4 μg/mL
Experimental: (§1) h (for C. albicans, C. krusei, C. tropicalis, C. parapsilosis) or 48 h (for C. neoformans, A. fumigatus). The MIC was determined based on visible growth inhibition compared with the control. All experiments were performed in duplicate.
Cytotoxicity testing. The cell lines HK2 and 16HBE were used to evaluate the cytotoxicity of 19ak, 19k and 19t. Cells in DMEM containing 10% fetal bovine serum (Gibco) were seeded in 96-well tissue culture plates at a cell density of 1 × 10^4 cells/mL and incubated for 24 h to allow adhesion. The supernatant was then replaced with fresh DMEM containing various concentrations of 19ak, 19k and 19t. […]
The effects of the compounds on cell proliferation were detected by measuring the absorbance at 570 nm in a microplate reader (BioTek, VT, USA). […]
the fluorescent complex […] (CTF) is commonly used to indicate the intensity of microbial respiration. C. albicans SC5314 treated with 19ak was stained with 1 mM CTC for 30 min, followed by flow cytometry analysis of respiratory activity based on fluorescence intensity. Images of cells were obtained using a fluorescence microscope (IX71, Olympus, Tokyo, Japan). […] After an additional 2 h of incubation, OD450 in each well was detected with a microplate reader. […]
Mitochondrial complex activity was expressed as nmol/min/mg protein. […]

[1] = tested on: human renal epithelial cell line HK2; experiment: Cytotoxicity testing (MTT); format: cell-based; details: ratio of IC50 against HK2 to MIC80 against C. albicans SC5314
Experimental: as §1
(§2) Cytotoxicity testing. The cell lines HK2 and 16HBE were used to evaluate the cytotoxicity of 19ak, 19k and 19t. Cells in DMEM containing 10% fetal bovine serum (Gibco) were seeded in 96-well tissue culture plates at a cell density of 1 × 10^4 cells/mL and incubated for 24 h to allow adhesion. The supernatant was then replaced with fresh DMEM containing various concentrations of 19ak, 19k and 19t. The plates were subsequently incubated for an additional 48 h at 37°C with 5% CO2, followed by the addition of 10 μL of MTT solution to each well and incubation at 37°C for 4 h.
(§3) The effects of the compounds on cell proliferation were detected by measuring the absorbance at 570 nm in a microplate reader (BioTek, VT, USA). Three independent experiments were conducted. […]

[2] = tested on: human bronchial epithelial cell line 16HBE; experiment: Cytotoxicity testing (MTT); format: cell-based; details: ratio of IC50 against 16HBE to MIC80 against C. albicans SC5314
Experimental: as §1, §2, §3

[3] = Cytotoxicity testing (MTT); format: cell-based, human; details: human, 48 h, MTT
Experimental: as §1, §2, §3

Compound: C/C(=N\NC(=S)N(C)C)c1ccccn1 [Compound 19ak]
- Labile zinc ions (Zinbo-5 fluorescence) (C. albicans SC5314 cells; 0.125 μg/mL): decreased
- Reduction of intracellular zinc ions (C. albicans SC5314 cells; 1 μg/mL): approximately 59.6%
- Mitochondrial respiratory activity (CTC fluorescence intensity) (C. albicans SC5314): dose-dependently reduced
- Selectivity index HK2 [1]: 214.32
- Selectivity index 16HBE [2]: 55.78
- IC50 at 48 h ([3]; 16HBE cells (bronchial epithelial cell line), 16HBE cells): 6.97 µg/mL (≈ 31.4 µM)
- IC50 at 48 h ([3]; HK2 cells (renal epithelial cell line), HK2 cells): 26.8 µg/mL (≈ 121 µM)
